Test results reported in US12539292B2, “BRM targeting compounds and associated methods of use” (Arvinas Operations, Inc., priority 2018, dated 2026).
Where two headings read alike, the source gives them in different places. Blank lines part the entries; values can stand above or below the compound they belong to.

Molecular target: T1, BRM (Homo sapiens, UniProt P51531)
T1 construct: In-Cell Western Screen of BRM Degradation in SW1573 Cells; endogenous in cells; host or cells: SW1573
Test: In-cell Western screen of BRM degradation in SW1573 cells (Dmax and DC50)
Format: cell-based
Procedure, shortened: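 SW1573 cells were treated overnight (18-20 hours) with compound at 0.1% final DMSO. They were then PFA-fixed, permeabilised with Triton X-100 and immunostained with 800 nm/680 nm secondary antibodies. BRM signal was quantified by LI-COR in-cell Western imaging to derive Dmax and DC50.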

[1] = BRM degradation, SW1573 cells, read-out: DC50
[2] = BRM degradation, SW1573 cells, Table 2D, read-out: **Dmax (%) (% degraded)
[3] = BRM degradation, SW1573 cells, Table 2D, read-out: *DC50
[4] = BRM degradation, SW1573 cells, tested at the top concentration of between 0.3 and 10 μM, read-out: Dmax (%) (% degraded)
[5] = target protein degradation, read-out: BRM DC50

T1 sequence (P51531 whole entry): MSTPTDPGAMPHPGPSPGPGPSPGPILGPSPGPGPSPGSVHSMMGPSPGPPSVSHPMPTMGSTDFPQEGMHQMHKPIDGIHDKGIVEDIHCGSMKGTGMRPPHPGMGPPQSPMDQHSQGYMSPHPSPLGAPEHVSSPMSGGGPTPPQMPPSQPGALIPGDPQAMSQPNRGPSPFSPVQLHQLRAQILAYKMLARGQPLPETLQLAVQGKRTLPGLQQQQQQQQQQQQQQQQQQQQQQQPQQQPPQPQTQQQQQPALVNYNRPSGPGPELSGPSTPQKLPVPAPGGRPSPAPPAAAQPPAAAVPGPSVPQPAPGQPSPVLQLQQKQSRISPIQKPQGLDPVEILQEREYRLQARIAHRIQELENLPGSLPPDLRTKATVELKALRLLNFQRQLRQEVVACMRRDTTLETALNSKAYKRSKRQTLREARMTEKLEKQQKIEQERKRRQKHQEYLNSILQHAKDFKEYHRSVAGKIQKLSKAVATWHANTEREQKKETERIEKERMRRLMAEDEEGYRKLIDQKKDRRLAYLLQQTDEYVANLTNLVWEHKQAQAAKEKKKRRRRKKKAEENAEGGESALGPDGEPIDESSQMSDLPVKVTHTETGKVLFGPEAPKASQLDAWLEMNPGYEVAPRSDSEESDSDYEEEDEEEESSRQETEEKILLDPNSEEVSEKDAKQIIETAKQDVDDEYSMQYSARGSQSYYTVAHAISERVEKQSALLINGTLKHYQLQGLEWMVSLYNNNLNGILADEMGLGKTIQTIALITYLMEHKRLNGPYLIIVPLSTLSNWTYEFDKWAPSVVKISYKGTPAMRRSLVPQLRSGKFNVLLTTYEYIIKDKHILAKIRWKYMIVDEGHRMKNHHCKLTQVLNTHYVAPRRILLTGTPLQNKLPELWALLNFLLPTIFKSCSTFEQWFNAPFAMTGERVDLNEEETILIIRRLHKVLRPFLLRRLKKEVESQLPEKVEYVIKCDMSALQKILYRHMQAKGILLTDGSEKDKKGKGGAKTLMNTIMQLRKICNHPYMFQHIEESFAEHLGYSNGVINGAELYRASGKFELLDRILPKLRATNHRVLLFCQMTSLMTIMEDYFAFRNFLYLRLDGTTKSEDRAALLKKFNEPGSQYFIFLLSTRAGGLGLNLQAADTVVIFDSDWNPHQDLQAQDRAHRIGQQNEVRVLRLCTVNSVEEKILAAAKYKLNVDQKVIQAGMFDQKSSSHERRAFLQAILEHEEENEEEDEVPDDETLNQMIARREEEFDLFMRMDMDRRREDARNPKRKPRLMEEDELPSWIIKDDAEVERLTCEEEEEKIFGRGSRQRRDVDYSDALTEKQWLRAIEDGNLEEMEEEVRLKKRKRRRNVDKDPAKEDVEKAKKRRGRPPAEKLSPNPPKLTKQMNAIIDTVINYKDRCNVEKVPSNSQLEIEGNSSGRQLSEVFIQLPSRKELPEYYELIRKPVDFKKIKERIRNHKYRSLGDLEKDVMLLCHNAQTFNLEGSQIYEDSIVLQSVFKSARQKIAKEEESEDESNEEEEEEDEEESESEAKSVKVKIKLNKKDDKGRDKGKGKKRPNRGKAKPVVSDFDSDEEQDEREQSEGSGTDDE

- DC50 [1]: > 30 nM
SMILES: Cc1ncsc1-c1ccc([C@H](CN)NC(=O)[C@@H]2C[C@@H](O)CN2C(=O)[C@H](c2cc(OCCN3CCN(CCOc4cc(N5C6CCC5CN(c5cc(-c7ccccc7O)nnc5N)C6)ccn4)CC3)no2)C(C)C)cc1 [compound 290, (2S,4R)-N-((R)-2-amino-1-(4-(4-methylthiazol-5-yl)phenyl)ethyl)-1-((2S)-2-(3-(2-(4-(2-((4-(3-(3-amino-6-(2-hydroxyphenyl)pyridazin-4-yl)-3,8-diazabicyclo[3.2.1]octan-8-yl)pyridin-2-yl)oxy)ethyl)piperazin-1-yl)ethoxy)isoxazol-5-yl)-3-methylbutanoyl)-4-hydroxypyrrolidine-2-carboxamide]

SMILES: Cc1ncsc1-c1ccc([C@H](C)NC(=O)[C@@H]2C[C@@H](O)CN2C(=O)[C@@H](c2cc(OCC[C@@H]3CCN(C[C@H]4C[C@H](Oc5cc(N6C7CCC6CN(c6cc(-c8ccccc8O)nnc6N)C7)ccn5)C4)C[C@@H]3C)no2)C(C)C)cc1 (racemic) [compound 544, (2S,4R)-1-((2R)-2-(3-(2-((3R,4S)-1-(((1r,3R)-3-((4-(3-(3-amino-6-(2-hydroxyphenyl)pyridazin-4-yl)-3,8-diazabicyclo[3.2.1]octan-8-yl)pyridin-2-yl)oxy)cyclobutyl)methyl)-3-methylpiperidin-4-yl)ethoxy)isoxazol-5-yl)-3-methylbutanoyl)-4-hydroxy-N-((S)-1-(4-(4-methylthiazol-5-yl)phenyl)ethyl)pyrrolidine-2-carboxamide]
- Dmax [2]: > 75%
- DC50 [3]: < 2.5 nM

SMILES: Cc1ncsc1-c1ccc([C@@H](NC(=O)[C@@H]2C[C@@H](O)CN2C(=O)[C@@H](c2cc(OCCN3CCN(CCOc4cc(N5C6CCC5CN(c5cc(-c7ccccc7O)nnc5N)C6)ccn4)CC3)no2)C(C)C)C(=O)N(C)C)cc1 [compound 131, (2S,4R)-1-((2R)-2-(3-(2-(4-(2-((4-(3-(3-amino-6-(2-hydroxyphenyl)pyridazin-4-yl)-3,8-diazabicyclo[3.2.1]octan-8-yl)pyridin-2-yl)oxy)ethyl)piperazin-1-yl)ethoxy)isoxazol-5-yl)-3-methylbutanoyl)-N-((R)-2-(dimethylamino)-1-(4-(4-methylthiazol-5-yl)phenyl)-2-oxoethyl)-4-hydroxypyrrolidine-2-carboxamide]
- DC50 [1]: < 2.5 nM
- Dmax (BRM degradation, SW1573 cells, when tested at the top concentration of between 0.3 and 10 μM, read-out: Dmax (%) (% degraded)): > 75%

SMILES: Cc1nccn1-c1ccc([C@H](C)NC(=O)[C@@H]2C[C@@H](O)CN2C(=O)[C@@H](c2cc(N3CCN(C[C@H]4C[C@H](Oc5cc(N6C7CCC6CN(c6cc(-c8ccccc8O)nnc6N)C7)ccn5)C4)CC3)no2)C(C)C)cc1 [compound 576, (2S,4R)-1-((2R)-2-(3-(4-(((1r,3R)-3-((4-(3-(3-amino-6-(2-hydroxyphenyl)pyridazin-4-yl)-3,8-diazabicyclo[3.2.1]octan-8-yl)pyridin-2-yl)oxy)cyclobutyl)methyl)piperazin-1-yl)isoxazol-5-yl)-3-methylbutanoyl)-4-hydroxy-N-((S)-1-(4-(2-methyl-1H-imidazol-1-yl)phenyl)ethyl)pyrrolidine-2-carboxamide]
- Dmax [2]: > 75%
- DC50 [3]: < 2.5 nM

SMILES: CC(C)C(C(=O)N1C[C@H](O)C[C@H]1C(=O)N[C@@H](C)c1ccc(C#N)cc1)c1cc(N2CCC(CN3CCC(O[C@H]4C[C@H](Oc5cc(N6C7CCC6CN(c6cc(-c8ccccc8O)nnc6N)C7)ccn5)C4)CC3)CC2)no1 (stereo partly drawn) [compound 639, (2S,4R)-1-((2S)-2-(3-(4-((4-((1r,3r)-3-((4-(3-(3-amino-6-(2-hydroxyphenyl)pyridazin-4-yl)-3,8-diazabicyclo[3.2.1]octan-8-yl)pyridin-2-yl)oxy)cyclobutoxy)piperidin-1-yl)methyl)piperidin-1-yl)isoxazol-5-yl)-3-methylbutanoyl)-N-((S)-1-(4-cyanophenyl)ethyl)-4-hydroxypyrrolidine-2-carboxamide]
- DC50 [1]: > 30 nM

- DC50 [1]: > 30 nM
SMILES: Cc1ncsc1-c1ccc(C2(NC(=O)[C@@H]3C[C@@H](O)CN3C(=O)[C@H](c3cc(OCCN4CCN(CCOc5cc(N6C7CCC6CN(c6cc(-c8ccccc8O)nnc6N)C7)ccn5)CC4)no3)C(C)C)CN(C)C2)cc1 [compound 228, (2S,4R)-1-((2S)-2-(3-(2-(4-(2-((4-(3-(3-amino-6-(2-hydroxyphenyl)pyridazin-4-yl)-3,8-diazabicyclo[3.2.1]octan-8-yl)pyridin-2-yl)oxy)ethyl)piperazin-1-yl)ethoxy)isoxazol-5-yl)-3-methylbutanoyl)-4-hydroxy-N-(1-methyl-3-(4-(4-methylthiazol-5-yl)phenyl)azetidin-3-yl)pyrrolidine-2-carboxamide]

SMILES: Cc1ncsc1-c1ccc([C@H](C)NC(=O)[C@@H]2C[C@@H](O)CN2C(=O)[C@H](c2onc(OCCN3CCN(CCOc4cc(N5C6CCC5CN(c5cc(-c7ccccc7O)nnc5N)C6)ccn4)CC3)c2F)C(C)C)cc1 [compound 198, (2S,4R)-1-((2S)-2-(3-(2-(4-(2-((4-(3-(3-amino-6-(2-hydroxyphenyl)pyridazin-4-yl)-3,8-diazabicyclo[3.2.1]octan-8-yl)pyridin-2-yl)oxy)ethyl)piperazin-1-yl)ethoxy)-4-fluoroisoxazol-5-yl)-3-methylbutanoyl)-4-hydroxy-N-((S)-1-(4-(4-methylthiazol-5-yl)phenyl)ethyl)pyrrolidine-2-carboxamide]
- DC50 [1]: 10 to 30 nM
- Dmax [4]: > 75%

SMILES: CC(C)[C@H](C(=O)N1C[C@H](O)C[C@H]1C(=O)N[C@@H](C)c1ccc(-c2ccnn2C)cc1)c1cc(N2CCC(CN3CCC(O[C@H]4C[C@H](Oc5cc(N6C7CCC6CN(c6cc(-c8ccccc8O)nnc6N)C7)ccn5)C4)CC3)CC2)no1 [compound 631, (2S,4R)-1-((2S)-2-(3-(4-((4-((1r,3r)-3-((4-(3-(3-amino-6-(2-hydroxyphenyl)pyridazin-4-yl)-3,8-diazabicyclo[3.2.1]octan-8-yl)pyridin-2-yl)oxy)cyclobutoxy)piperidin-1-yl)methyl)piperidin-1-yl)isoxazol-5-yl)-3-methylbutanoyl)-4-hydroxy-N-((S)-1-(4-(1-methyl-1H-pyrazol-5-yl)phenyl)ethyl)pyrrolidine-2-carboxamide]
- DC50 [1]: < 2.5 nM
- Dmax (BRM degradation, SW1573 cells, read-out: Dmax (% degraded)): > 75%

SMILES: Cc1ncsc1-c1ccc([C@H](C)NC(=O)[C@@H]2C[C@@H](O)CN2C(=O)[C@H](c2cc(OCCN3CCC(O[C@H]4C[C@H](Oc5cc(N6C7CCC6CN(c6cc(-c8ccccc8O)nnc6N)C7)ccn5)C4)CC3)no2)C(C)C)nc1 [compound 367, (2S,4R)-1-((2S)-2-(3-(2-(4-((1r,3S)-3-((4-(3-(3-amino-6-(2-hydroxyphenyl)pyridazin-4-yl)-3,8-diazabicyclo[3.2.1]octan-8-yl)pyridin-2-yl)oxy)cyclobutoxy)piperidin-1-yl)ethoxy)isoxazol-5-yl)-3-methylbutanoyl)-4-hydroxy-N-((S)-1-(5-(4-methylthiazol-5-yl)pyridin-2-yl)ethyl)pyrrolidine-2-carboxamide]
- Dmax (SW1573, % degraded, when tested at the top concentration of between 0.3 and 10 μM, read-out: BRM Dmax (%)): > 75%
- DC50 [5]: > 30 nM

- DC50 [1]: > 30 nM
- Dmax [4]: > 75%
SMILES: Cc1ncsc1-c1ccc([C@H](C)NC(=O)[C@@H]2C[C@@H](O)CN2C(=O)[C@H](c2cc(CCCOCCOCCOCCn3cc(-c4cc(-c5ccccc5O)nnc4N)cn3)no2)C(C)C)cc1 [compound 196, (2S,4R)-1-((S)-2-(3-(3-(2-(2-(2-(4-(3-amino-6-(2-hydroxyphenyl)pyridazin-4-yl)-1H-pyrazol-1-yl)ethoxy)ethoxy)ethoxy)propyl)isoxazol-5-yl)-3-methylbutanoyl)-4-hydroxy-N-((S)-1-(4-(4-methylthiazol-5-yl)phenyl)ethyl)pyrrolidine-2-carboxamide]

SMILES: Cc1ncoc1-c1ccc([C@H](C)NC(=O)[C@@H]2C[C@@H](O)CN2C(=O)[C@H](c2cc(OCCN3CCN(CCOc4cc(N5C6CCC5CN(c5cc(-c7ccccc7O)nnc5N)C6)ccn4)CC3)no2)C(C)C)cn1 [compound 161, (2S,4R)-1-((2S)-2-(3-(2-(4-(2-((4-(3-(3-amino-6-(2-hydroxyphenyl)pyridazin-4-yl)-3,8-diazabicyclo[3.2.1]octan-8-yl)pyridin-2-yl)oxy)ethyl)piperazin-1-yl)ethoxy)isoxazol-5-yl)-3-methylbutanoyl)-4-hydroxy-N-((S)-1-(6-(4-methyloxazol-5-yl)pyridin-3-yl)ethyl)pyrrolidine-2-carboxamide]
- DC50 [1]: > 30 nM
- Dmax [4]: < 50%

SMILES: Cc1ncsc1-c1ccc([C@H](C)NC(=O)[C@@H]2C[C@@H](O)CN2C(=O)[C@H](c2cc(C#CCN3CCC(OC4CC(Oc5cc(N6C7CC[C@@H]6CN(c6cc(-c8ccccc8O)nnc6N)C7)ccn5)C4)CC3)no2)C(C)C)cc1 (stereo partly drawn) [compound 379, (2S,4R)-1-((2S)-2-(3-(3-(4-((1r,3S)-3-((4-(3-(3-amino-6-(2-hydroxyphenyl)pyridazin-4-yl)-3,8-diazabicyclo[3.2.1]octan-8-yl)pyridin-2-yl)oxy)cyclobutoxy)piperidin-1-yl)prop-1-yn-1-yl)isoxazol-5-yl)-3-methylbutanoyl)-4-hydroxy-N-((S)-1-(4-(4-methylthiazol-5-yl)phenyl)ethyl)pyrrolidine-2-carboxamide]
- DC50 [5]: > 30 nM

- DC50 (BRM degradation, read-out: BRM DC50): > 30 nM
SMILES: Cc1cc([C@H](C(=O)N2C[C@H](O)C[C@H]2C(=O)N[C@H](COCCOCCNc2ccc(-c3ccccc3O)nn2)c2ccc(-c3scnc3C)cc2)C(C)C)on1 [compound 524, (2S,4R)-4-hydroxy-N-((S)-2-(2-(2-((6-(2-hydroxyphenyl)pyridazin-3-yl)amino)ethoxy)ethoxy)-1-(4-(4-methylthiazol-5-yl)phenyl)ethyl)-1-((R)-3-methyl-2-(3-methylisoxazol-5-yl)butanoyl)pyrrolidine-2-carboxamide]
